Molecular target: T1, Dual specificity protein kinase TTK (Homo sapiens, UniProt P33981)
T1 sequence (P33981 whole entry): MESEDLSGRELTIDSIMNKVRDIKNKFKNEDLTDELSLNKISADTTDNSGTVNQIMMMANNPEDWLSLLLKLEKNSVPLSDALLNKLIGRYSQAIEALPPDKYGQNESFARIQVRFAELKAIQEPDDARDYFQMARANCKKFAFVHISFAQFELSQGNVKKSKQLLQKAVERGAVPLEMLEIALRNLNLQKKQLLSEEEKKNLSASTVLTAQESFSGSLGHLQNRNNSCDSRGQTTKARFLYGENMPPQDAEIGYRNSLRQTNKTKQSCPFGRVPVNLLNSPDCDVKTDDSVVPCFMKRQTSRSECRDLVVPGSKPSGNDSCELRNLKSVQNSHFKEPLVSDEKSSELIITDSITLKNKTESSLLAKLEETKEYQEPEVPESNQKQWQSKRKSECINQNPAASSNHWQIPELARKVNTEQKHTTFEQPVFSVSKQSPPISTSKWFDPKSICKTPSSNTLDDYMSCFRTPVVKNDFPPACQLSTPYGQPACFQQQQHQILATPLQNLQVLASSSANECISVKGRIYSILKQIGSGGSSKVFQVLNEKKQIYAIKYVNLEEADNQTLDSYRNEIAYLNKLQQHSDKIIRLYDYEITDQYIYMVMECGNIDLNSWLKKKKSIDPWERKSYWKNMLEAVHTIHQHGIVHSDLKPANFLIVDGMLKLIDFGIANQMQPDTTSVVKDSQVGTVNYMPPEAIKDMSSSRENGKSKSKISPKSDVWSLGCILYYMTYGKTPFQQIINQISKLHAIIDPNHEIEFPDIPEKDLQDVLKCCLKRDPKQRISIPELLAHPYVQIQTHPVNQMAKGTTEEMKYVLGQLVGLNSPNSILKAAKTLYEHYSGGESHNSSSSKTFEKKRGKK
Assay: Enzyme Assay: The inhibitory activity of compounds against AURKA, AURKB, JAK1, JAK2 and JAK3 was determined in Z′-LYTE® assays run by ThermoFisher Scientific as part of their SelectScreen Biochemical Kinase Profiling Service. The Z′-LYTE biochemical assay format employs a fluorescence-based, coupled-enzyme format and is based on the differential sensitivity of phosphorylated and …

IC50: 501 nM
Compound: Cc1cc2ncnn2cc1Nc1ncc2c(n1)n([C@H]1CC[C@@](C)(O)CC1)c(=O)n2C

Source: ChEMBL document CHEMBL5727296, “Amino-triazolopyridine compounds and their use in treating cancer” (2019)
